Assays:
h-DHODH = molecular target: T1, h-DHODH (Homo sapiens, UniProt Q02127); assay: Dihydro-orotate dehydrogenase inhibition assay (U937 membrane preparations, DCIP reduction); type: biochemical; details: U937 membrane preparation; for inhibition at 0.3 µM: compound tested at 0.3 uM (footnote *)
T1 construct: endogenous in cells; host or cells: U937 cells (membrane fraction, solubilised with 1% octyl glucoside)
Description: Dihydro-Orotate Dehydrogenase Inhibition Assay
Dihydro-orotate dehydrogenase (DHODH) catalyzes the […] of dihydro-orotate to orotate during de novo biosynthesis of pyrimidines Inhibition of DHODH activity in U937 membrane preparations was measured by the dihydro-orotate driven reduction of 2,6 dichloroindophenol (DCIP).
U937 cells were homogenized in 20 mM Tris/HCl (pH 7.2) containing 1 mM EDTA. […] Following washes, the pellet was dissolved in 20 mM Tris/HCl containing 150 mM NaCl, 1 mM EDTA, and 1% octyl glucoside on ice for 1 h. Particulate matter was removed by centrifugation at 100000×g for 1 h at 4° C. […] The mixture was incubated at 37° C. for 4 h before measuring the change in absorbance on a plate reader (BMG Labtech., Germany) at 600 nm. Data were analyzed using GraphPad Prism. IC50 for each compound was determined based on the percent inhibition of dihydro-orotate […].

IL-17 = assay: Inhibition of IL-17 release from mouse splenocytes (PMA + ionomycin, ELISA); type: cell-based, Balb/c mice; details: Splenocyte, 10 μM, 3 h
Description: 2. Inhibition of IL-17 Release from Mouse Splenocytes:
Splenocytes isolated from Balb/c mice were re-suspended in RPMI medium at a concentration of 1×10^6 cells/ml and seeded in a 6 well plate. Cells were incubated with desired concentrations of the inhibitor for 15 min prior to induction with 10 ng/ml PMA+1 μM ionomycin. After a 3 h incubation, supernatant was collected and analyzed for IL-17 concentration using an ELISA kit. Data were analyzed using GraphPad Prism. IC50 values for each compound were determined based on the percent inhibition due to the test compound compared to the control.

T1 sequence (Q02127 whole entry): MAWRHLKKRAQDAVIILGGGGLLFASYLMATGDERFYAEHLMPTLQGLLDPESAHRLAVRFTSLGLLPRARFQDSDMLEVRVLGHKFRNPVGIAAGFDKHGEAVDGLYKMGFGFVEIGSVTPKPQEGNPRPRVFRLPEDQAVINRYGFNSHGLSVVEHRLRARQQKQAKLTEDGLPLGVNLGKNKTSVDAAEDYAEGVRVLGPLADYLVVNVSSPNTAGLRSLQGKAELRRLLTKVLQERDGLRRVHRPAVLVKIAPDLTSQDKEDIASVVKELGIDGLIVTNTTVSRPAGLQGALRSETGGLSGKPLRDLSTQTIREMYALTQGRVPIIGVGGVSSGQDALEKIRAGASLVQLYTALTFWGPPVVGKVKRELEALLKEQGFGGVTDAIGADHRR

| Structure (SMILES) | inhibition at 1 µM (h-DHODH) [%] | IC50 (h-DHODH) [nM] | inhibition at 0.3 µM (h-DHODH) [%] | inhibition at 10 µM (IL-17) [%] |
| --- | --- | --- | --- | --- |
| CCOc1cccc(-c2cc(F)c(NC(=O)c3c(Cl)ccc(Cl)c3C(=O)O)c(F)c2)c1 [Example 28, 3,6-dichloro-2-(3′-ethoxy-3,5-difluorobiphenyl-4-ylcarbamoyl)benzoic acid] | 12.9 |  |  | 18.8 |
| CCOc1cccc(-c2cc(F)c(NC(=O)c3ccccc3CO)c(Cl)c2)c1 [Example 36, N-(3-Chloro-3′-ethoxy-5-fluorobiphenyl-4-yl)-2-(hydroxymethyl)benzamide] |  |  |  | 45.5 |
| CCOc1cccc(-c2cc(F)c(NC(=O)c3ccccc3CO)c(F)c2)c1 [Example 37, N-(3′-Ethoxy-3,5-difluorobiphenyl-4-yl)-2-(hydroxymethyl)benzamide] | 14.8 |  |  | 17.8 |
| CCOc1cccc(-c2cc(F)c(NC(=O)c3cccc(F)c3C(=O)O)c(Cl)c2)c1 [Example 38, 2-(3-Chloro-3′-ethoxy-5-fluorobiphenyl-4-ylcarbamoyl)-6-fluorobenzoic acid] | 27.8 |  |  | 9.35 |
| O=C(O)c1ccccc1C(=O)Nc1c(F)cc(OCc2ccccc2)cc1F [Example 40, 2-[4-(Benzyloxy)-2,6-difluorophenylcarbamoyl]benzoic acid] |  |  |  | 8.79 |
| O=C(O)c1ccccc1C(=O)Nc1c(F)cc(-c2cccc(OC(F)F)c2)cc1F [Example 43, 2-[3′-(Difluoromethoxy)-3,5-difluorobiphenyl-4-ylcarbamoyl]benzoic acid] | 58.2 | 181 |  | 6.82 |
| O=C(O)c1ccccc1C(=O)Nc1c(F)cc(-c2cccc(OC(F)F)c2)cc1Cl [Example 44, 2-[3-Chloro-3′-(difluoromethoxy)-5-fluorobiphenyl-4-ylcarbamoyl]benzoic acid] | 71.1 | 90.6 |  | 35 |
| COc1ccc(Cl)c(-c2cc(F)c(NC(=O)c3ccccc3C(=O)O)c(F)c2)c1 [Example 45, 2-(2′-Chloro-3,5-difluoro-5′-methoxybiphenyl-4-ylcarbamoyl)benzoic acid] | 96.2 | 44.1 |  | 48.5 |
| COc1cc(F)cc(-c2cc(F)c(NC(=O)c3ccccc3C(=O)O)c(F)c2)c1 [Example 46, 2-(3,3′,5-Trifluoro-5′-methoxybiphenyl-4-ylcarbamoyl)benzoic acid] | 56 |  |  | 3.69 |
| O=C(O)c1ccccc1C(=O)Nc1c(F)cc(-c2ccc3c(c2)OCO3)cc1F [Example 47, 2-[4-(Benzo[d][1,3]dioxol-5-yl)-2,6-difluorophenylcarbamoyl]benzoic acid] | 55.2 |  |  | 6.22 |
| O=C(O)c1ccccc1C(=O)Nc1c(F)cc(-c2ccc3c(c2)OCO3)cc1Cl [Example 48, 2-[4-(Benzo[d][1,3]dioxol-5-yl)-2-chloro-6-fluorophenylcarbamoyl]benzoic acid] | 47.1 |  |  | 22 |
| COc1ccc(-c2cc(F)c(NC(=O)c3ccccc3C(=O)O)c(F)c2)cc1OC [Example 49, 2-(3,5-Difluoro-3′,4′-dimethoxybiphenyl-4-ylcarbamoyl)benzoic acid] |  |  |  | 3.95 |
| COc1cc(Cl)cc(-c2cc(F)c(NC(=O)c3ccccc3C(=O)O)c(Cl)c2)c1 [Example 51, 2-(3,3′-Dichloro-5-fluoro-5′-methoxybiphenyl-4-ylcarbamoyl)benzoic acid] | 26.6 |  |  | 10.8 |
| O=C(O)c1ccccc1C(=O)Nc1c(F)cc(-c2ccc3c(c2)CCO3)cc1F [Example 52, 2-[4-(2,3-Dihydrobenzofuran-5-yl)-2,6-difluorophenylcarbamoyl]benzoic acid] | 12.8 |  |  | 13.8 |
| O=C(O)c1ccccc1C(=O)Nc1c(F)cc(-c2ccc3c(c2)CCO3)cc1Cl [Example 53, 2-[2-Chloro-4-(2,3-dihydrobenzofuran-5-yl)-6-fluorophenylcarbamoyl]benzoic acid] |  |  |  | 8.28 |
| Cc1nn(C)c2ccc(-c3cc(F)c(NC(=O)c4ccccc4C(=O)O)c(F)c3)cc12 [Example 54, 2-[4-(1,3-Dimethyl-1H-indazol-5-yl)-2,6-difluorophenylcarbamoyl]benzoic acid] |  |  |  | 22.6 |
| COc1cc(Cl)cc(-c2cc(F)c(NC(=O)c3ccccc3C(=O)O)c(F)c2)c1 [Example 55, 2-(3′-Chloro-3,5-difluoro-5′-methoxybiphenyl-4-ylcarbamoyl)benzoic acid] | 44.5 |  |  | 5.66 |
| COc1ccc(-c2cc(F)c(NC(=O)c3ccccc3C(=O)O)c(Cl)c2)cc1OC [Example 56, 2-(3-Chloro-5-fluoro-3′,4′-dimethoxybiphenyl-4-ylcarbamoyl)benzoic acid] | 1.77 |  |  | 5.49 |

Further lines, with some results ahead:

| inhibition at 1 µM (h-DHODH) [%] | IC50 (h-DHODH) [nM] | inhibition at 0.3 µM (h-DHODH) [%] | Structure (SMILES) | inhibition at 10 µM (IL-17) [%] |
| --- | --- | --- | --- | --- |
| 68.1 |  |  | COc1ccc(Cl)c(-c2cc(F)c(NC(=O)c3ccccc3C(=O)O)c(Cl)c2)c1 [Example 57, 2-(2′,3-Dichloro-5-fluoro-5′-methoxybiphenyl-4-ylcarbamoyl)benzoic acid] |  |
| 76.1 |  |  | COc1ccc(F)c(-c2cc(F)c(NC(=O)c3ccccc3C(=O)O)c(F)c2)c1 [Example 58, 2-(2′,3,5-Trifluoro-5′-methoxybiphenyl-4-ylcarbamoyl)benzoic acid] | 5.46 |
| 34.5 |  |  | COc1cc(-c2cc(F)c(NC(=O)c3ccccc3C(=O)O)c(F)c2)ccc1Cl [Example 59, 2-(4′-Chloro-3,5-difluoro-3′-methoxybiphenyl-4-ylcarbamoyl)benzoic acid] | 7.36 |
| 41.8 |  |  | COc1cc(-c2cc(F)c(NC(=O)c3ccccc3C(=O)O)c(Cl)c2)ccc1Cl [Example 60, 2-(3,4′-Dichloro-5-fluoro-3′-methoxybiphenyl-4-ylcarbamoyl)benzoic acid] | 20.3 |
| 73.7 |  |  | COc1ccc(F)c(-c2cc(F)c(NC(=O)c3ccccc3C(=O)O)c(Cl)c2)c1 [Example 61, 2-(3-chloro-2′,5-difluoro-5′-methoxybiphenyl-4-ylcarbamoyl)benzoic acid] | 4.23 |
| 12.4 |  |  | COc1cc(-c2cc(F)c(NC(=O)c3ccccc3C(=O)O)c(F)c2)ccc1F [Example 62, 2-(3,4′,5-trifluoro-3′-methoxybiphenyl-4-ylcarbamoyl)benzoic acid] | 8.34 |
| 76.7 | 22 |  | Cc1c[nH]c2ccc(-c3cc(F)c(NC(=O)c4ccccc4C(=O)O)c(F)c3)cc12 [Example 63, 2-[2,6-difluoro-4-(3-methyl-1H-indol-5-yl)phenylcarbamoyl]benzoic acid] | 0 |
| 23.4 |  |  | Cc1n[nH]c2ccc(-c3cc(F)c(NC(=O)c4ccccc4C(=O)O)c(F)c3)cc12 [Example 64, 2-[2,6-difluoro-4-(3-methyl-1H-indazol-5-yl)phenylcarbamoyl]benzoic acid] | 15.3 |
| 71.2 | 146 |  | CCc1cccc(-c2cc(F)c(NC(=O)c3ccccc3C(=O)O)c(Cl)c2)c1 [Example 65, 2-(3-chloro-3′-ethyl-5-fluorobiphenyl-4-ylcarbamoyl)benzoic acid] | 11 |
| 87.5 | 84.4 |  | CCOc1cccc(-c2cc(F)c(NC(=O)c3ccccc3C(=O)O)c(Cl)c2)c1F [Example 66, 2-(3-chloro-3′-ethoxy-2′,5-difluorobiphenyl-4-ylcarbamoyl)benzoic acid] |  |
| 54.1 |  |  | O=C(O)c1ccccc1C(=O)Nc1c(F)cc(-c2ccc3c(c2)OCCO3)cc1Cl [Example 67, 2-[2-chloro-4-(2,3-dihydrobenzo[b][1,4]dioxin-6-yl)-6-fluorophenylcarbamoyl]benzoic acid] | 3.56 |
| 86.5 | 62.2 |  | O=C(O)c1ccccc1C(=O)Nc1c(F)cc(-c2cccc(OCC(F)(F)F)c2)cc1Cl [Example 68, 2-[3-chloro-5-fluoro-3′-(2,2,2-trifluoroethoxy)biphenyl-4-ylcarbamoyl]benzoic acid] |  |
| 22 |  |  | COc1cccc(-c2ccc(NC(=O)c3ccccc3C(=O)O)c(F)c2)c1 [Example 69, 2-(3-fluoro-3′-methoxybiphenyl-4-ylcarbamoyl)benzoic acid] | 5.54 |
| 16.9 |  |  | CC[S+]([O-])c1cccc(-c2cc(F)c(NC(=O)c3ccccc3C(=O)O)c(F)c2)c1 (stereo not shown) [Example 72, 2-[3′-(ethylsulfinyl)-3,5-difluorobiphenyl-4-ylcarbamoyl]benzoic acid] | 7.36 |
|  |  | 43.6 | O=C(O)c1ccccc1C(=O)Nc1c(F)cc(-c2cccc(OCC(F)(F)F)c2)cc1F [Example 83, 2-[3,5-difluoro-3′-(2,2,2-trifluoroethoxy)biphenyl-4-ylcarbamoyl]benzoic acid] | 8.79 |
|  |  | 36.6 | CCc1cccc(-c2cc(F)c(NC(=O)c3ccccc3C(=O)O)c(F)c2)c1 [Example 84, 2-(3′-ethyl-3,5-difluorobiphenyl-4-ylcarbamoyl)benzoic acid] | 12.1 |

From patent US8686048B2, “Immunomodulator and anti-inflammatory compounds” (Rhizen Pharmaceuticals SA, priority 2010, dated 2014)
